Measured values: patent US20200206200A1, “PROPHYLACTIC AND/OR THERAPEUTIC AGENT CONTAINING PYRIDYLAMINOACETIC ACID COMPOUND” (priority 2015, published 2020)
“Also recorded” adds a separate entry of the source.

Test system: ocular hypertensive monkeys
Assay: Intraocular pressure-lowering effect in laser-induced ocular hypertensive monkeys
Format: in vivo, Macaca fascicularis
Conditions: 0.01 w/v% solution
Protocol: To investigate the usefulness of the present compound A, an intraocular pressure-lowering effect of the present compound A was tested in experimental animals (ocular hypertensive monkeys). Regarding test solutions, a reference solution not containing the present compound A was used as a control, a solution containing the present compound A was prepared as Example 1 of the invention of the present application, and a latanoprost eye drop was prepared as Comparative Example 1, as shown below.
To 1.7 g of polyoxyl 35 castor oil, 10 mL of a 0.5% (w/v) disodium edetate/10% (w/v) glycerin solution, 1 mL of a 1% (w/v) benzalkonium chloride solution, 30 mL of purified water, and 50 mL of a 2% (w/v) boric acid/0.2% (w/v) sorbic acid solution were added and dissolved therein. […]
(2) The intraocular pressure was measured immediately before instillation of one of the test solutions (the above-described control, Example 1, and Comparative Example 1), and employed as the initial intraocular pressure. […]
(4) After 2 hours, 4 hours, and 6 hours had passed from the instillation of the test solution, one drop of the 0.4% oxybuprocaine hydrochloride eye drop was instilled for local anesthesia to the eye whose intraocular pressure was to be measured, and then the intraocular pressure was measured. In addition, the intraocular pressure was measured three times, and the average value was shown in the results. […]

## CC(C)OC(=O)CNc1cccc(CN(Cc2ccc(-n3cccn3)cc2)S(=O)(=O)c2cccnc2)n1 [present compound A, isopropyl (6-{ [4-(pyrazol-1-yl)benzyl] (pyridin-3-ylsulfonyl)aminomethyl}pyridin-2-ylamino)acetate]
  intraocular pressure-lowering activity (in words): larger than that in the latanoprost-treated group; also recorded: rapidly provided an excellent intraocular pressure-lowering effect
  time after administration by which excellent intraocular pressure-lowering activity was exhibited: ≤ 2 h
